Reference: patent publication US20250002471A1 (Gilead Sciences, Inc., priority 2020, published 2025)

Experiments:
TLR7 = biological target: T1, TLR7 (Homo sapiens, UniProt Q9NYK1); assay: Human PBMC cell-based assay, TLR7 agonist GS-986 stimulation, cytokine (IL-6 and IFNα) readout; conditions: human PBMCs, GS-986 400 nM, 6 hours; Table 26; read-out: TLR-7 EC50
T1 construct: lymphocytes, monocytes and dendritic cells that express TLR7, TLR8 and TLR9; endogenous in cells; host or cells: human PBMCs from healthy donors
T1 sequence (Q9NYK1 27-1049): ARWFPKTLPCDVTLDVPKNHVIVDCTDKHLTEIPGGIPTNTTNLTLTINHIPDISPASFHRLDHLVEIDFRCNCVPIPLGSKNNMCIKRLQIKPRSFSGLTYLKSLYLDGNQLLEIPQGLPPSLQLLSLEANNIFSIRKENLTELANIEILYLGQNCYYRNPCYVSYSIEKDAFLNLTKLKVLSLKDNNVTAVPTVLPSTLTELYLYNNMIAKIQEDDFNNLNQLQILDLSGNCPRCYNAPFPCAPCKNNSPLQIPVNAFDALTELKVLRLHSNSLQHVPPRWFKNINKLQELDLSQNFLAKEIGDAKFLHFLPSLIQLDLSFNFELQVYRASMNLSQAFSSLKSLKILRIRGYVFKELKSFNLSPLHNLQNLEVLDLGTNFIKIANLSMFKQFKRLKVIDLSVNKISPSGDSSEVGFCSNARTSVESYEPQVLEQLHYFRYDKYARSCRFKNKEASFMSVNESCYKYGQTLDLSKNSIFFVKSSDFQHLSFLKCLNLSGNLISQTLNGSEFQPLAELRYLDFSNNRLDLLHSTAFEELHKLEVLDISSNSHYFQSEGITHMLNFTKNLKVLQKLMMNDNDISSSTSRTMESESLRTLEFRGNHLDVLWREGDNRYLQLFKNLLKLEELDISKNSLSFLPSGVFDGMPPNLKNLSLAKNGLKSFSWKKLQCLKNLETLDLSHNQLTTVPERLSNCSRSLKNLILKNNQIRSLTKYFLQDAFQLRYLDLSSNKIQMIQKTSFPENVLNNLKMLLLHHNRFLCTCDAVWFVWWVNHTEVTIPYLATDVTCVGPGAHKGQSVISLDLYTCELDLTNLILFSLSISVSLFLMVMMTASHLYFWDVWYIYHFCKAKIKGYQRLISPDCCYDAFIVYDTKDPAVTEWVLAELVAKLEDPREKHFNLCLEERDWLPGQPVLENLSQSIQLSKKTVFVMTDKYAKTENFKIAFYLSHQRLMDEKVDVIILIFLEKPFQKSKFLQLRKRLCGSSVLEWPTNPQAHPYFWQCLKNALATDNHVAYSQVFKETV
Summary of the method: (§1)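 Readout is IL-6 and IFNα in supernatants, quantified by electrochemiluminescence, with EC50 from a sigmoidal fit of cytokine versus concentration. Healthy-donor human PBMCs, 100,000 per well, got antagonist for 1 h at 37 °C, then 6 h agonist exposure: TLR7 via GS-986 at 400 nM final, TLR9 via ODN-2216 at 3 μM final.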

TLR9 = biological target: T2, TLR9 (Homo sapiens, UniProt Q9NR96); assay: Human PBMC cell-based assay, TLR9 agonist ODN-2216 stimulation, cytokine (IL-6 and IFNα) readout; conditions: human PBMCs, ODN-2216 3 μM, 6 hours; Table 26; read-out: TLR-9 EC50
T2 construct: lymphocytes, monocytes and dendritic cells that express TLR7, TLR8 and TLR9; endogenous in cells; host or cells: human PBMCs from healthy donors
T2 sequence (Q9NR96 26-1032): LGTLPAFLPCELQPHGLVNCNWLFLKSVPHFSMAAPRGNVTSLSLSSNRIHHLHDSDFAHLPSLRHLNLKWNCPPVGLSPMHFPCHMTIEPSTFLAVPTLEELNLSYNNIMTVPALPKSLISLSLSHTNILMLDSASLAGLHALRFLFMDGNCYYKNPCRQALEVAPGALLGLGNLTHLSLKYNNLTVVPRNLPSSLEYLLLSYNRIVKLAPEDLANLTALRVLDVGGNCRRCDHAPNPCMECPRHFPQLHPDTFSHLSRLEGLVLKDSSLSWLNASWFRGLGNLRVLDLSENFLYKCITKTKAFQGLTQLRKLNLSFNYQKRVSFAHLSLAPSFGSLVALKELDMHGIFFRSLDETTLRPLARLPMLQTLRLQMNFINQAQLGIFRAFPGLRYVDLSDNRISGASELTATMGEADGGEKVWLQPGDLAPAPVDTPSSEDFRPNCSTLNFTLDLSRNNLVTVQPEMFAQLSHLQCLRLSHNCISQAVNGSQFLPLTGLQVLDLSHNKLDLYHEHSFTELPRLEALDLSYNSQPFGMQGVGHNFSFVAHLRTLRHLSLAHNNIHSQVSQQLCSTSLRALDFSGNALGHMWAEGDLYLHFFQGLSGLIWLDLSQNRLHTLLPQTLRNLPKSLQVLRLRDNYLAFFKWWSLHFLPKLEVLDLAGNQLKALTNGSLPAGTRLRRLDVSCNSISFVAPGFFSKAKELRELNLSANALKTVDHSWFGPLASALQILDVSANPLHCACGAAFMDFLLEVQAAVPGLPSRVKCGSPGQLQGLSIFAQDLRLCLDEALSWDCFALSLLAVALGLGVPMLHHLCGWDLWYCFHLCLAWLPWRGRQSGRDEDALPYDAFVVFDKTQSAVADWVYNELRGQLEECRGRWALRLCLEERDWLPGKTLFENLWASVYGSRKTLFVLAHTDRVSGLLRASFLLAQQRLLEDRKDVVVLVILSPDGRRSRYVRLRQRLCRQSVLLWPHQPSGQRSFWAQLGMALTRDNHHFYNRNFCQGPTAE
Summary of the method: as §1

Row | Compound | EC50 (TLR7) | EC50 (TLR9)
1 | Cc1cc(-c2[nH]c3cc(-c4ccc(N5CC[C@@H](NCCO)C5)nc4)ccc3c2C)cc(C)n1 [Example 130, (R)-2-((1-(5-(2-(2,6-dimethylpyridin-4-yl)-3-methyl-1H-indol-6-yl)pyridin-2-yl)pyrrolidin-3-yl)amino)ethan-1-ol] | 16.3 nM | 18.2 nM
2 | Cc1cc(-c2[nH]c3cc(-c4ccc(N5CCC(NCCO)CC5)nc4)ccc3c2C)cc(C)n1 [Example 131, 2-((1-(5-(2-(2,6-dimethylpyridin-4-yl)-3-methyl-1H-indol-6-yl)pyridin-2-yl)piperidin-4-yl)amino)ethan-1-ol] | 17.9 nM | 14.6 nM
3 | Cc1cc(-c2[nH]c3cc(-c4ccc(C5=CCNCC5)nc4)ccc3c2C)cc(C)n1 [Example 132, 2-(2,6-dimethylpyridin-4-yl)-3-methyl-6-(1′,2′,3′,6′-tetrahydro-[2,4′-bipyridin]-5-yl)-1H-indole] | 5.1 nM | 10.6 nM
4 | Cc1cc(-c2[nH]c3cc(-c4ccc(N5CCN(C(=O)[C@@H]6CCCN6)CC5)nc4)ccc3c2C)cc(C)n1 [Example 135] | 73.9 nM | 41.3 nM
5 | CNCC(=O)N1CCN(c2ccc(-c3ccc4c(C)c(-c5cc(C)nc(C)c5)[nH]c4c3)cn2)CC1 [Example 136] | 37.8 nM | 45.6 nM
6 | Cc1cc(-c2[nH]c3cc(-c4ccc(N5CCN(C(=O)CN)CC5)nc4)ccc3c2C)cc(C)n1 [Example 137] | 45.9 nM | 119 nM
7 | Cc1cc(-c2[nH]c3cc(-c4ccc(N5CCN(C(=O)[C@@H]6CC(F)(F)CN6)CC5)nc4)ccc3c2C)cc(C)n1 [Example 138] | 415 nM | 288 nM
8 | Cc1cc(-c2[nH]c3cc(-c4ccc(N5CCN(C(=O)[C@@H]6CCNC6)CC5)nc4)ccc3c2C)cc(C)n1 [Example 139] | 93.5 nM | 203 nM
9 | Cc1cc(-c2[nH]c3cc(-c4ccc(N5CCN(CC(F)(F)F)CC5)nc4)ccc3c2C)cc(C)n1 [Example 142] | > 1000 nM | 1370 nM
10 | Cc1cc(-c2[nH]c3cc(-c4ccc(N5CCN(CCO)CC5)nc4)ccc3c2C2CC2)cc(C)n1 [Example 143] | 3.4 nM | 124 nM
11 | Cc1cc(-c2[nH]c3cc(-c4ccc(C(=O)N5CCC(N)CC5)nc4)ccc3c2C)cc(C)n1 [Example 145, (4-aminopiperidin-1-yl)(5-(2-(2,6-dimethylpyridin-4-yl)-3-methyl-1H-indol-6-yl)pyridin-2-yl)methanone] | 48.8 nM | 277 nM
12 | Cc1cc(-c2[nH]c3cc(-c4csc(N5CCNCC5)n4)ccc3c2C)cc(C)n1 [Example 146, 4-[2-(2,6-dimethyl-4-pyridyl)-3-methyl-1H-indol-6-yl]-2-piperazin-1-yl-thiazole] | 119 nM | 37.4 nM
13 | Cc1cc(-c2[nH]c3cc(-c4ccc5[nH]c(C6CCNCC6)nc5c4)ccc3c2C)cc(C)n1 [Example 147, 5-[2-(2,6-dimethyl-4-pyridyl)-3-methyl-1H-indol-6-yl]-2-(4-piperidyl)-1H-benzimidazole] | > 1000 nM | 1350 nM
14 | Cc1cc(-c2[nH]c3nc(-c4ccc(N5CCNCC5)nc4)ccc3c2C)cc(C)n1 [Example 150] | 760 nM | 72.3 nM
15 | Cc1cc(-c2[nH]c3cc(-c4ccc(N5CCNCC5)nc4)ncc3c2C)cc(C)n1 [Example 151] | 867 nM | 537 nM
16 | Cc1c(-c2cc(C)c3ncnn3c2)[nH]c2nc(C3CCNCC3)ccc12 [Example 153] | 108 nM | 1580 nM
17 | Cc1cc(-c2[nH]c3cc(-c4ccc5nc([C@@H]6CCCNC6)[nH]c5c4)ccc3c2C)cc(C)n1 [Example 160] | 30.7 nM | 566 nM
18 | Cc1cc(-c2[nH]c3cc(-c4ccc(C5=CCCNC5)nc4)ccc3c2C)cc(C)n1 [Example 162] | 9.1 nM | 30 nM
19 | Cc1cc(-c2[nH]c3cc(-c4ccc5ncn(C6CCNCC6)c5c4)ccc3c2C)cc(C)n1 [Example 166] | 144 nM | 522 nM

Now from value to compound:

Row | EC50 (TLR7) | EC50 (TLR9) | Compound
20 | 14.4 nM | 24.7 nM | Cc1cc(-c2[nH]c3cc(-c4ccc(N5CCN(CC(C)(C)O)CC5)nc4)ccc3c2C)cc(C)n1 [Example 129, 1-(4-(5-(2-(2,6-dimethylpyridin-4-yl)-3-methyl-1H-indol-6-yl)pyridin-2-yl)piperazin-1-yl)-2-methylpropan-2-ol]
21 | 41.9 nM | 58.9 nM | Cc1cc(-c2[nH]c3cc(-c4ccc(N5CCN(C(=O)[C@H]6CCCN6)CC5)nc4)ccc3c2C)cc(C)n1 [Example 134, (R)-2-(2,6-dimethylpyridin-4-yl)-3-methyl-6-(6-(4-prolylpiperazin-1-yl)pyridin-3-yl)-1H-indole]
22 | 30.5 nM | 42.3 nM | Cc1cc(-c2[nH]c3cc(-c4ccc(N5CCN(C(=O)C67CNC(C6)C7)CC5)nc4)ccc3c2C)cc(C)n1 [Example 140]
23 | > 1000 nM | 120 nM | Cc1cc(-c2[nH]c3cc(-c4ccc(N5CCN(CC(F)F)CC5)nc4)ccc3c2C)cc(C)n1 [Example 141, 6-(6-(4-(2,2-difluoroethyl)piperazin-1-yl)pyridin-3-yl)-2-(2,6-dimethylpyridin-4-yl)-3-methyl-1H-indole]
24 | > 1000 nM | 727 nM | Cc1cc(-c2[nH]c3cc(-c4ccc(N5CCN6CC(F)(F)C[C@H]6C5)nc4)ccc3c2C)cc(C)n1 [Example 144]
25 | 11.8 nM | 142 nM | Cc1cc(-c2[nH]c3cc(-c4ccc5c(c4)ncn5C4CCNCC4)ccc3c2C)cc(C)n1 [Example 148, 5-[2-(2,6-dimethyl-4-pyridyl)-3-methyl-1H-indol-6-yl]-1-(4-piperidyl)benzimidazole]
26 | 1260 nM | 188 nM | Cc1cc(-c2[nH]c3cc(-c4ccc(N5CCNCC5)nc4)cnc3c2C)cc(C)n1 [Example 149, 2-(2,6-dimethyl-4-pyridyl)-3-methyl-6-(6-piperazin-1-yl-3-pyridyl)-1H-pyrrolo[3,2-b]pyridine]
27 | 1420 nM | 178 nM | Cc1cc(-c2[nH]c3nc(C4CCNCC4)ccc3c2C)cc(C)n1 [Example 152, 2-(2,6-dimethyl-4-pyridyl)-3-methyl-6-(4-piperidyl)-1H-pyrrolo[2,3-b]pyridine]
28 | 24.2 nM | 47.1 nM | Cc1cc(-c2[nH]c3cc(-c4ccc(C5CCN(CCO)CC5)nc4)ccc3c2C)cc(C)n1 [Example 163]
29 | 22.8 nM | 49.1 nM | Cc1cc(-c2[nH]c3cc(-c4ccc5nc([C@H]6CCCCN6)[nH]c5c4)ccc3c2C)cc(C)n1 [Example 164]
